Consider 22 compounds from patent publication US11420994B2, “Carbon-monoxide-releasing molecules and therapeutic applications thereof” (GEORGIA STATE UNIVERSITY RESEARCH FOUNDATION, INC., priority 2016, dated 2022).

A short description of series [1]: Reaction of TPCPD with cyclooctynes at 50 mM, time to completion. In kind it is physicochemical. As to conditions: 50 mM concentration.
For series [2], the system named is RAW cells. The series can be described thus: WST-1 cytotoxicity test. It counts as cell-based, mouse. As to the method: In order to assess the cytotoxic effect of the reactants, 1 and 6a, as well as product 31, on RAW cells, the cytotoxicity test WST-1 was performed to examine induction by TPCPD (1) and BCN (6a) over varying concentrations and periods of time (FIGS. 3a-c).
Different concentrations of each molecule were assessed: from 0.78 to 100 μM for 1 and 31 and 7.8 to 1000 μM for 6a. Different time points were assessed (1 h, 4 h, 8 h and 24 h). Triton 0.1% was used as a positive control of cytotoxicity and the subsequent value was established as 100% of cytotoxicity.
A general note: Formazan colour is commonly taken as a measure of viable cells.

The test system of series [3] is TNF-α. The series is described as follows: TNF-α ELISA in LPS treated RAW 264.7 cells pre-treated with CO prodrug. In kind it is cell-based, mouse. As to conditions: pre-treated 5 h, then LPS 1 h. As to the method:
RAW 264.7 cells were seeded in the 48-well plate one day before the experiment.
LPS was used to initialize the inflammatory response in RAW 264.7 cells and trigger the expression of cytokines. RAW 264.7 cells were pre-treated with different concentrations of 10b or 44b product for 5 hours. Thereafter, […] LPS was added with into the cell culture media. For TNF-α test, the cell culture supernatant was collected after 1 hour of LPS treatment. For IL-6 test, the cell culture supernatant was collected after 4 hours of LPS treatment. Cell culture without LPS treatment was used as control.
10a-10d, and 100 with different release rates were chosen to test their inhibitory effect against lipopolysaccharide (LPS) induced TNF-α secretion in RAW 264.7 cells. […] This was followed by the treatment of LPS for another 1 h. Then the cell culture supernatants were subjected to ELISA assay for TNF-α levels.
For orientation: In an ELISA, binding on a coated surface is turned into a signal by an enzyme label.

Series [4] in a line: Fluorescence properties of the cycloaddition products. It counts as physicochemical. As to conditions: for λem emission wavelength / λex excitation wavelength: of the cycloaddition products 44a-44f and 100a; for Φ quantum yield: of the cycloaddition products 44a-44f and 100a in MeOH, quinine sulfate as the standard.
Series [5] in a line: CO release kinetics by increase of fluorescence intensity. It counts as physicochemical. The note with it: DMSO/PBS (pH = 7.4) 5:1 at 37° C. As to the method: Compound 10a was dissolved indifferent solvents including CH2Cl2 (25° C.), CH3CN (25° C.), DMSO (25° C.), DMSO/PBS (10:1, 25° C.), DMSO/PBS (5:1, 25° C.), and DMSO/PBS (5:1, 37° C.) to give a final concentration of around 100 μM, and CO release was monitored by fluorescence intensity at 450 nm. Each experiment was repeated three times independently. The CO release rate (first order reaction rate) in DCM, CH3CN, DMSO, DMSO/PBS (10:1), DMSO/PBS (5:1), and DMSO/PBS (5:1, 37° C.) were different and their individual rate constant was calculated to be 2.3±0.2, 3.6±0.4, 6.6±0.6, 7.7±0.6, 11.0±1.4 and 22.4±3.2 h^−1, respectively. […] The CO release rate increased along with the polarity of the solvent.

The subject of series [6] is TNBS induced colitis. The series is described as follows: TNBS induced colitis in mice. In kind it is in vivo.
Experimental: Male adult C57BL/6 mice (8-12 weeks, 20-25 g) were obtained from Sichuan University laboratory animal center, and housed in standard conditions with constant temperature (22±2° C.) and 12 h light-dark cycle, free to sterile water and standard food.
TNBS (Trinitrobenzene sulfonic acid) enema was used for colitis induction.^3 Mice were randomly assigned into four groups: sham control group, TNBS model group, 10b treatment group and 44b group. Briefly, mice were fasted for 24 h, and then lightly anesthetized with 1% isoflurane. TNBS (in saline-ethanol, 50:50, v/v) solution 50 μL was infused into the colon using a cannula with the depth of 4 cm from anus. Mice in sham control group received 50 μL vehicle (saline-ethanol, 50:50, v/v). Mice were held with a vertical position for at least 30s after infusion, for sake of homogenous distribution and retention of TNBS. Mice would not be put back to the cage until they wake up and have autonomous respiration.
Drug administration. Vehicle solution (Solutol:saline=30:70), 10b (15 mg/kg) and 44b (15 mg/kg) was i.p. injected 1 hour before model construction; and 24 h, 48 h and 72 h after model construction. Euthanasia was conducted on 1st/3rd/7th day respectively through intraperitoneally injecting of pentobarbital sodium, and samples were removed and analyzed later.
Macroscopic evaluation of colitis damage. Colons were removed quickly and lengths were measured and represented in centimeter. After that, colons were longitudinally excised and carefully washed with ice-cold normal saline. Macroscopic signs of colon damage were evaluated by an experimenter blind to the mice grouping, according to an established semi-quantitative scoring system: Ulcer (0.5 points=0.5 cm); Colonic shortening (1 point≥15%, 2 points≥25%, based on the average length of colons from the control group); Every additional presence of hemorrhage, diarrhea or fecal blood added 1 point to the score. Intestinal wall thickness was measured in millimeter and recorded as well.
Mice were dosed with 10b (15 mg/kg), 44b (15 mg/kg), or the vehicle (solutol/saline=30:70) control by intraperitoneal injection 1 h before the model construction, and then dosed again at 24 h, 48 h and 72 h time points after the model construction; and then sacrificed. Colon was removed for macroscopic evaluation of colitis damage.
Series [7] in a line: Determination of CO release rates (fluorescence or UV absorbance). The note with it: DMSO/PBS (4:1) at 37° C. It counts as physicochemical. As to the method:
For CO prodrugs with naphthalene scaffold, the CO release rate is easily done by monitoring the fluorescence intensity of the cyclized product. For the others, the CO release rate was determined by employing the UV absorbance difference between the prodrugs and the cyclized product.

A short description of series [8]: Kinetics of the Diels-Alder reaction of TPCPD with exo-BCN (UV-Vis). It counts as physicochemical. As to the method: Separate solutions of pure TPCPD (1) and pure exo-BCN (6a) (>95-98% by H-NMR) were prepared in HPLC-grade methanol (acetonitrile, 1,2-dichloroethane, dioxane) at room temperature. The stability of TPCPD in methanol (25 μM) was examined by monitoring its absorption maximum at 335 nm. The solutions containing TPCPD (1, 50 μM, 400 μL) and 18-fold excess of exo-BCN (6a, 900 μM, 400 μL) were added into quartz cuvettes, thoroughly mixed and sealed with a PTFE cap. All kinetic runs were triplicates. Curve fitting was operated in Prism5 software.
The reaction between 1 and 6a (Scheme 8) leads to significant changes in the UV-Vis spectrum of TPCPD […] due to its conversion to the cyclization product 31 (FIG. 1a). Therefore, the reaction can be easily monitored.
It was observed that the reaction rate between TPCPD and BCN was moderately sensitive to the reaction solvent. Methanol, acetonitrile, […] (DCE), and dioxane were chosen for the kinetic studies. The reaction appears to be faster in polar solvents than in nonpolar solvents. […] In order to utilize the reaction under physiological conditions, the reaction rate was measured at physiological temperature, 37° C.

The mark [9] stands for this setting: 8 h, within the concentration range studied.
[10] abbreviates: 15 mg/kg i.p., compared to the TNBS group.

Consider `OCC1[C@H]2CCC#CCC[C@@H]12` (some centres unmarked) [BCN], for which the “time in which reaction with TPCPD finished” value in series [1] is at most 5 min. Besides, the cytotoxicity entry in series [2] (setting [9]) was “Neither 6a (FIG. 3b) and nor the product (FIG. 3c) displayed any sign of cytotoxicity”; in series [2] (24 h, 1 mM) it was 60%.
Consider `CN(CC#C[Si](c1ccccc1)(c1ccccc1)C(C)(C)C)C(=O)C1=C2C(=C(c3ccccc3)C1=O)c1cccc3cccc2c13` [Compound 10d], for which, in series [3], the “LPS-induced TNF-α expression / secretion” value is given as “suppressed TNF-α secretion, but it did not show any dose-dependent effect”. In series [4], this compound had a λem emission wavelength of 456 nm, a λex excitation wavelength of 378 nm and a Φ quantum yield of 0.21. The “k CO release rate” value in series [5] stood at 22.6 ± 0.2 h⁻¹.
In series [4], `C#CCOC(=O)C1=C2C(=C(c3ccccc3)C1=O)c1cccc3cccc2c13` [Compound 10e] returned a λem emission wavelength of 454 nm, a λex excitation wavelength of 367 nm and a Φ quantum yield of 0.14.
In series [4], `C#CCNC(=O)C1=C2C(=C(c3ccccc3)C1=O)c1cccc3cccc2c13` [Compound 10f] registered a λem emission wavelength of 456 nm, a λex excitation wavelength of 370 nm and a Φ quantum yield of 0.18.
On to `OC[C@@H]1[C@H]2CCc3c(c(-c4ccccc4)c(-c4ccccc4)c(-c4ccccc4)c3-c3ccccc3)CC[C@@H]12` [Compound 31], for which the cytotoxicity result was “Neither 6a (FIG. 3b) and nor the product (FIG. 3c) displayed any sign of cytotoxicity” in series [2] (setting [9]); “not cytotoxic” in series [2] (24 h, within the concentration range tested).
With `CC(C)N1CCc2cc(-c3ccccc3)c3c(c2C1=O)-c1cccc2cccc-3c12` [Compound 44b], the “LPS-induced TNF-α expression / secretion” value in series [3] is “did not show any TNF-α suppression effects”. In addition, the survival rate result in series [6] (15 mg/kg i.p. 1 h before and 24, 48, 72 h after TNBS) is reported as “no similar effects were observed”. Moreover, in series [6] (setting [10]), the colon length result was “no similar effects were observed”, the colon thickness entry is on record as “no similar effects were observed” and the injury score entry was “no similar effects were observed”.
With `Cc1c2c(c3c(c1-c1ccccc1)-c1cccc4cccc-3c14)C(=O)N(C(C)C)CC2` [Compound 44c], the “LPS-induced TNF-α expression / secretion” value in series [3] is “did not show any TNF-α suppression effects”.
Consider `CN1Cc2c(c3c(c(-c4ccccc4)c2[Si](c2ccccc2)(c2ccccc2)C(C)(C)C)-c2cccc4cccc-3c24)C1=O` [Compound 44d], for which the “LPS-induced TNF-α expression / secretion” value in series [3] was “did not show any TNF-α suppression effects”.
On to `C#CC(C)OC(=O)C1=C2C(=C(c3ccccc3)C1=O)c1cccc3cccc2c13` (centres unmarked) [Compound 104], for which the “K CO release” value in series [7] was 0.012 ± 0.0003 h⁻¹.
For `C#CC(C)(C)OC(=O)C1=C2C(=C(c3ccccc3)C1=O)c1cccc3cccc2c13` [Compound 105], the “K CO release” value in series [7] turned out to be 1.28 ± 0.183 h⁻¹.
With `C#CC(C)NC(=O)C1=C2C(=C(c3ccccc3)C1=O)c1cccc3cccc2c13` (centres unmarked) [Compound 108], the “K CO release” value in series [7] came out at 0.058 ± 0.003 h⁻¹.
`C#CC(C)(C)NC(=O)C1=C2C(=C(c3ccccc3)C1=O)c1cccc3cccc2c13` [Compound 109]: the “K CO release” value in series [7] amounted to 3.31 ± 0.28 h⁻¹.
For the compound `C#CCCN(CCN1CCOCC1)C(=O)C1=C2C(=C(c3ccccc3)C1=O)c1cccc3cccc2c13` [Compound 110], the “time in which CO release was finished” value in series [7] is on record as “CO release was finished in 4 h”.
For the compound `C#CC(C)(C)NC(=O)C1=C2C(=C(SC)C1=O)c1cccc3cccc2c13` [Compound 111], the “K CO release” value in series [7] amounted to 4.63 ± 0.28 h⁻¹.
`C#CC(C)(C)OC(=O)C1=C2C(=C(SC)C1=O)c1cccc3cccc2c13` [Compound 112]: the “K CO release” value in series [7] stood at 1.29 ± 0.07 h⁻¹.
The same measure, in the same setting: for `C#CCOC(=O)C1=C(c2ccccc2)C(c2ccccc2)=C(c2ccccc2)C1=O` [Compound 119] the value was 5.89 ± 0.61 h⁻¹; for `C#CC(C)OC(=O)C1=C(c2ccccc2)C(c2ccccc2)=C(c2ccccc2)C1=O` (centres unmarked) [Compound 120], 9.4 ± 0.02 h⁻¹; for `C#CC(C)Oc1ccccc1C1=C2C(=C(C(=O)N3CCOCC3)C1=O)c1cccc3cccc2c13` (centres unmarked) [Compound 125], 0.10 ± 0.003 h⁻¹.
For the compound `C#CCN(c1ccccc1C1=C2C(=C(C(=O)N3CCOCC3)C1=O)c1cccc3cccc2c13)S(C)(=O)=O` [Compound 127], in series [7], the “K CO release” value came to 0.88 ± 0.01 h⁻¹.
On to `O=C1C(c2ccccc2)=C(c2ccccc2)C(c2ccccc2)=C1c1ccccc1` [TPCPD], for which the “toxicity (Triton 0.1% = 100%)” value in series [2] (8 h, 50 μM) is listed as 44%; in series [2] (8 h, 100 μM) it was 49%. The cytotoxicity entry in series [2] (24 h, concentrations higher than 12.5 μM) is on record as “more than 50%”. The “k2 second order rate constant” value in series [8] (CH3CN, r.t.) was 0.26 M⁻¹ s⁻¹; in series [8] (DCE, r.t.), 0.17 M⁻¹ s⁻¹; in series [8] (Dioxane, r.t.) it was 0.096 M⁻¹ s⁻¹; in series [8] (MeOH, 37° C.), 1.1 M⁻¹ s⁻¹; in series [8] (MeOH, r.t.) it was 0.50 M⁻¹ s⁻¹.
As for `C1#CCCCCCC1` [cyclooctyne], the “time in which reaction with TPCPD finished” value in series [1] is listed as 15 min.
Turning to fluorocyclooctyne [fluorocycolooctyne], the “time after which reaction with TPCPD had not reached completion” value in series [1] is above 24 h.
